Data reported in PMC4212957, “The serodominant secreted effector protein of Salmonella, SseB, is a strong CD4 antigen containing an immunodominant epitope presented by diverse HLA class II alleles” (Immunology, 2014).

How the values were obtained:
HLA-DRB1*15:02 = target: T1, HLA-DRB1*15:02 (Homo sapiens, UniProt P01903+P01911, V115G); assay: Peptide/HLA-DR binding, competitive ELISA; conditions: ratio IC50 of peptide / IC50 of reference peptide TFR 607–620, lower = higher affinity, ratio 20 or less high, 20–100 moderate, three independent experiments
T1 construct: HLA-DR heterodimers were purified from homozygous Epstein–Barr virus B-lymphoblastoid cell lines; host or cells: homozygous EBV B-lymphoblastoid cell line
Method: (§1) HLA-DR heterodimers were purified from homozygous Epstein–Barr virus B-lymphoblastoid cell lines (HPA Culture Collections, Salisbury, UK) by affinity chromatography with the monomorphic HLA-DRα monoclonal antibody, L243.[29],[30] Binding of the SseB peptide panel to the HLA-DR molecules HLA-DRB1*01:01, 03:01, 04:01, 07:01, 09:01, 11:01, 12:02, 15:01, 15:02 was assessed by competitive ELISA, as previously described, using an automated workstation.[29],[30] We evaluated the peptide concentration able to prevent binding of 50% of the labelled peptide (IC50). Data were expressed as relative affinity: ratio of the IC50 of the peptide to the IC50 of the reference peptide, which is a high binder to the HLA class II molecule. Unlabelled forms of the biotinylated peptides were used as reference peptides.

HLA-DR heterodimers = assay: Breadth of binding across the HLA-DR panel; design: species or system human; conditions: of nine HLA-DR molecules screened; competitive ELISA
Method: as §1
The HLA-DR peptide-binding assay used here was designed to give a strong coverage of commonly expressed alleles across diverse populations. For example, the DR1, 3, 4, 7, 11 and 1501 heterodimers cumulatively cover approximately 80% of individuals in Caucasian populations, whereas DR9, DR1202 and DR1502 are rare in Caucasian populations but are found in around a third of individuals in many South East Asian populations. Of the 18 peptides encompassing the SseB overlapping peptide library, 15 show significant HLA-DR binding (Table2). Eight peptides were able to bind specifically to only one or two alleles, but the seven other binders were able to bind more heterodimers. It is noteworthy that there are three peptides, p2, p11 and p18, with the property of binding 6, 7 and 8 different HLA-DR heterodimers, respectively. They span HLA-DRB sequences with rather diverse peptide-binding pockets.

PBMCs = assay: Human IFN-γ ELISpot; format: cell-based; conditions: 50 μg/ml peptide, 2 × 10^5 PBMCs, 24 hr; both cohorts; positive if > 2 SD above no-peptide/protein control
Method: CD4 T cell responses to SseB were analysed in peripheral blood mononuclear cell (PBMC) samples from healthy control donors with no reported clinical history of Salmonella infection and from donors who had been experimentally challenged with S. Typhi 12 months previously as described elsewhere.[28] Healthy control blood samples were collected with informed consent, under the approval of Ethics REC reference number 08/H0707/173. The S. Typhi challenge participants were recruited by the Oxford Vaccine Group, University of Oxford and the study was performed at the Centre for Clinical Vaccinology and Tropical Medicine, Oxford. Ethics approval was obtained from the NRES Committee South Central – Oxford A (11/SC/0302). Written, informed consent was provided by all participants. A pre-determined bacterial dose (10^4 colony-forming units) of challenge agent (Quailes strain) was delivered by oral ingestion suspended in a sodium bicarbonate solution.[28] Study exclusion criteria included previous typhoid vaccination, residence in a typhoid endemic country for over 6 months and known diagnosis of a probably or confirmed typhoid infection. Blood samples were collected and PBMCs were purified by Lymphoprep density gradient separation.
Human IFN-γ ELISpot assays were run using reagents from Mabtech (Stockholm, Sweden). Briefly, 2 × 10^5 thawed PBMCs were incubated in pre-coated human IFN-γ ELISpot plates, in triplicate, with 50 μg/ml of SseB peptide or recombinant protein (25 μg/ml) in RPMI-1640 medium containing 2 mM L-glutamine, 50 U/ml penicillin G, 50 μg/ml streptomycin sulphate and 10% fetal calf serum. […] Developed plates were left to dry before spot counting using an AID ELISpot reader (Autoimmun Diagnostika GMBH, Straßberg, Germany). […] To better define HLA restriction, human donor ELISpot responses were also analysed in the presence of HLA class II blocking monoclonal antibodies at a final concentration of 25 μg/ml: L243 (anti-HLA-DRα), SPVL-3 (anti-HLA-DQ), B7/21 (anti-HLA-DP) and control mouse IgG. […]

HLA-DRB1*01:01 = HLA-DRB1*01:01 (Homo sapiens, UniProt P01903+P01911, A100R/D57E/F55L/F60I/F76Y/I96L/L162R/M171V/P40L/Q125E/R42F/V115G/Y59C); conditions: competitive ELISA; ratio IC50 of peptide / IC50 of reference peptide HA 306–318; lower = higher affinity; ratio 20 or less high, 20–100 moderate; three independent experiments
HLA-DRB1*04:01 = HLA-DRB1*04:01 (Homo sapiens, UniProt P01903+P01911, A100K/A169T/F76Y/I96L/K127E/L162R/M171V/N62H/P40V/Q125Y/R42H/S133A/S149N/S66Y/V115G/V209L/W38E); conditions: competitive ELISA; ratio IC50 of peptide / IC50 of reference peptide HA 306–318; lower = higher affinity; ratio 20 or less high, 20–100 moderate; three independent experiments
HLA-DRB1*07:01 = HLA-DRB1*07:01 (Homo sapiens, UniProt P01903+P01911, A100R/A102G/A103Q/D57E/D86V/E43K/F76Y/K127E/L162R/M171V/P40G/Q125H/Q99D/R33Q/R42Y/R54Q/S133A/S66F/T210M/V115G/Y107V/Y59L/Y89S); conditions: competitive ELISA; ratio IC50 of peptide / IC50 of reference peptide HA 306–318; lower = higher affinity; ratio 20 or less high, 20–100 moderate; three independent experiments
HLA-DRB1*11:01 = HLA-DRB1*11:01 (Homo sapiens, UniProt P01903+P01911, A100R/A169T/A87E/I96F/K41T/L162R/M171V/P40S/Q125H/Q178H/Q39Y/Q99D/R42S/S66Y/T262R/V115G/W38E); conditions: competitive ELISA; ratio IC50 of peptide / IC50 of reference peptide HA 306–318; lower = higher affinity; ratio 20 or less high, 20–100 moderate; three independent experiments

Substance | Relative binding affinity of peptide to HLA-DR molecules DRB1*1502 (HLA-DRB1*15:02) | number of different HLA-DR heterodimers bound (HLA-DR heterodimers) | human CD4 T-cell IFN-γ ELISpot response to peptide (PBMCs) | Relative binding affinity of peptide to HLA-DR molecules DRB1*0101 (HLA-DRB1*01:01) | Relative binding affinity of peptide to HLA-DR molecules DRB1*0401 (HLA-DRB1*04:01) | Relative binding affinity of peptide to HLA-DR molecules DRB1*0701 (HLA-DRB1*07:01) | Relative binding affinity of peptide to HLA-DR molecules DRB1*1101 (HLA-DRB1*11:01)
11: SseB overlapping library peptide, residues 101–120 (EDVIKYMRDNGILIDGMTID) [Peptide 11] | 37 | 7 | largest and most common peptide responses | 61 | 17 | 2 | > 278
AVLTQLTGLISKWGEISSMIAQKTYS [Peptide 18] | 63 | 8 | less frequent among the epitopes recognized | 2 | 2 | 12 | 7
2: SseB overlapping library peptide, residues 11–30 (QNPIVFKNSFGVSNADTGSQ) [Peptide 2] | 5 | 6 | largest and most common peptide responses | 300 | 9 | 14 | > 278
